Measured values published in patent US10683453B2, “Organic compounds with soluble groups” (Merck Patent GmbH, priority 2014, dated 2020).

Assay: Determination of solubility in toluene
Type: physicochemical
Settings: stirred at 60° C. for 1 h, cooled to room temperature, yes = clear solution lacking any large particles
Experimental: Determination of Solubility
In order to examine whether a material has a toluene solubility of 10 mg/ml or more, the procedure is as follows: 20 mg of material in solid form are initially charged in a sample bottle. At room temperature (20° C.), 2 ml of toluene are added. The bottle is closed and the contents are stirred at 60° C. on a heatable magnetic stirrer for 1 h. In the course of this, good thermal contact is ensured by means of an aluminium block having holes into which the bottles fit exactly. After 1 h, the bottle is removed and left to cool to room temperature. If a clear solution lacking any large particles is present in the bottle, at least 10 mg/ml of the material are soluble in toluene.
Solubilities with other solubility limits are determined in entirely the same way. The starting weight is also matched to 2 ml of solvent.

N#Cc1ccc2c(c1)C1(c3cc(C#N)ccc3-2)c2ccccc2N(c2cc(-c3ccccc3)cc(-c3ccccc3)c2)c2ccccc21 [Compound 6a, 2′,7′-Cyano-10H-terphenyl-10H-spiro(acridine-9,9′-fluorene)]
Solubility in toluene > 2 mg/ml: yes | Solubility in toluene > 5 mg/ml: yes | Solubility in toluene > 10 mg/ml: no

CCCCCCc1cc(CCCCCC)cc(N2c3ccccc3C3(c4ccccc4C(=C(C#N)C#N)c4ccccc43)c3ccccc32)c1 [Compound 9a]
Solubility in toluene > 2 mg/ml: yes | Solubility in toluene > 5 mg/ml: yes | Solubility in toluene > 10 mg/ml: yes

N#CC(C#N)=C1c2ccccc2C2(c3ccccc31)c1ccccc1N(c1c(-c3ccccc3)cc(-c3ccccc3)cc1-c1ccccc1)c1ccccc12 [Compound 9e]
Solubility in toluene > 2 mg/ml: yes | Solubility in toluene > 5 mg/ml: yes | Solubility in toluene > 10 mg/ml: no

CCCCCCc1ccc2c(c1)c1cc(CCCCCC)ccc1n2-c1c(C#N)c(-n2c3ccc(CCCCCC)cc3c3cc(CCCCCC)ccc32)c(C#N)c(-n2c3ccc(CCCCCC)cc3c3cc(CCCCCC)ccc32)c1C#N [Compound 19d]
Solubility in toluene > 2 mg/ml: yes | Solubility in toluene > 5 mg/ml: yes | Solubility in toluene > 10 mg/ml: yes

N#Cc1c(-n2c3ccccc3c3ccccc32)c(C#N)c(-n2c3ccccc3c3ccccc32)c(-n2c3ccccc3c3ccccc32)c1-n1c2ccccc2c2ccccc21 [reference compound]
Solubility in toluene > 2 mg/ml: yes | Solubility in toluene > 5 mg/ml: no | Solubility in toluene > 10 mg/ml: no

N#Cc1ccc2c(c1)C1(c3cc(C#N)ccc3-2)c2ccccc2N(c2ccccc2)c2ccccc21 [reference compound]
Solubility in toluene > 2 mg/ml: no | Solubility in toluene > 5 mg/ml: no | Solubility in toluene > 10 mg/ml: no

N#CC(C#N)=C1c2ccccc2C2(c3ccccc31)c1ccccc1N(c1ccccc1)c1ccccc12 [reference compound]
Solubility in toluene > 2 mg/ml: yes | Solubility in toluene > 5 mg/ml: no | Solubility in toluene > 10 mg/ml: no
